Active and inactive are the calls of the source. The calls are words filed in the database; no cut-off is given here.
Key:
Cathepsin B = Cathepsin B (Homo sapiens, UniProt P07858)
Description: Inhibition of human Cat B in HepG2 cells

Procathepsin L = Procathepsin L (Homo sapiens, UniProt P07711)
Description: Inhibition of human Cat L

Trypanosoma cruzi = experiment: Antimicrobial activity against Trypanosoma cruzi infected in mouse assessed as reduction in parasitemia; format: functional, organism-based
Mus musculus = species: Mus musculus; experiment: Toxicity in Trypanosoma cruzi infected mouse; format: organism-based; conditions: in vivo
Cruzipain = Cruzipain (Trypanosoma cruzi, UniProt P25779)
Cruzipain, sequence (P25779 whole entry): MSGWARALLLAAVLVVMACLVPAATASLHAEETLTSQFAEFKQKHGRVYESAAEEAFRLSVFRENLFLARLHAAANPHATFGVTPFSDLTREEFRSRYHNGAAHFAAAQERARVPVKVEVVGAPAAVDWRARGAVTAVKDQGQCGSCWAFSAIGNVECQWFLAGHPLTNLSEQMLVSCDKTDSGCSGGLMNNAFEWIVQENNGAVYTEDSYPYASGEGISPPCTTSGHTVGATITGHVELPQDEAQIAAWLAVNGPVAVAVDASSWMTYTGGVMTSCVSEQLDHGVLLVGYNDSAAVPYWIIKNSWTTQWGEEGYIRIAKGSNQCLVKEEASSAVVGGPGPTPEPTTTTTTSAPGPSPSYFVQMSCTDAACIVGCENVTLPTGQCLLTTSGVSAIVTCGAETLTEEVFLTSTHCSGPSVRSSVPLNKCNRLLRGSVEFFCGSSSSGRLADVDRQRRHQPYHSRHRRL
Description: Inhibition of Trypanosoma cruzi Cruzipain

[1] = Half life in mouse; format: ADME, organism-based; conditions: in vivo
Cathepsin S = Cathepsin S (Homo sapiens, UniProt P25774); experiment: Inhibition of human Cat S expressed in Ramos cells; format: cell-based
Cathepsin S, sequence (P25774 whole entry): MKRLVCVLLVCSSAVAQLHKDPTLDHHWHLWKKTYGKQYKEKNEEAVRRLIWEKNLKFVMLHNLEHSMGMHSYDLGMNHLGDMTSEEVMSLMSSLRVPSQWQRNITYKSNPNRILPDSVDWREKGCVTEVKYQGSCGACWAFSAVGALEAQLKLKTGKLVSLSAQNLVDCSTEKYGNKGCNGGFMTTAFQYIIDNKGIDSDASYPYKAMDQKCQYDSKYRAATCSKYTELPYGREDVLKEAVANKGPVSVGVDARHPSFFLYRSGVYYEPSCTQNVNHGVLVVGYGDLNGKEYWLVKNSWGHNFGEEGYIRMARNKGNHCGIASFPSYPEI

Cathepsin L2 = target: T1, Cathepsin L2 (Homo sapiens, UniProt O60911); experiment: Inhibition of human Cat V
T1 sequence (O60911 whole entry): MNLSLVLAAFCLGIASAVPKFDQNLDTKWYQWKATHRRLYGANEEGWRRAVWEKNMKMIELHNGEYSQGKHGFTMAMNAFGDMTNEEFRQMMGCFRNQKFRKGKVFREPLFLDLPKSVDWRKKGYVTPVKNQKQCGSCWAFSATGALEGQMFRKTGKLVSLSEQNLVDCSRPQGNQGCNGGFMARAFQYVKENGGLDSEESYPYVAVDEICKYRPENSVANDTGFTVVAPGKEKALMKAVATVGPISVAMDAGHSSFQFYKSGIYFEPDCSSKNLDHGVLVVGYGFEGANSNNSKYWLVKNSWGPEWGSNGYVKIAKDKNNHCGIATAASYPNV

Cathepsin K = target: T2, Cathepsin K (Homo sapiens, UniProt P43235); experiment: Inhibition of human Cat K expressed in Ramos cells; format: cell-based
T2 sequence (P43235 whole entry): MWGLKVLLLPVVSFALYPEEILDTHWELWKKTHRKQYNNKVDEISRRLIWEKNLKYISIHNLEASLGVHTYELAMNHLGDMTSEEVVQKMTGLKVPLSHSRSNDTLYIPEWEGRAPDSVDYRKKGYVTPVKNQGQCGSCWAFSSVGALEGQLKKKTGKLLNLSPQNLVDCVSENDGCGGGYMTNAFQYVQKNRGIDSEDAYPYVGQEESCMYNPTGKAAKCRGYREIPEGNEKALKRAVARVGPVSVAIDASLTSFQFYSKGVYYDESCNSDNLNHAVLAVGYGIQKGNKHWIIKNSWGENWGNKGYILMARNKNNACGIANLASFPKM

[2] = Half life in dog; format: ADME, organism-based, Canis lupus familiaris; conditions: in vivo
[3] = Half life in rat; format: ADME, organism-based; conditions: in vivo
[4] = Oral bioavailability in dog; format: ADME, organism-based, Canis lupus familiaris; conditions: in vivo
[5] = Oral bioavailability in rat; format: ADME, organism-based; conditions: in vivo

Procathepsin L, sequence (P07711 whole entry): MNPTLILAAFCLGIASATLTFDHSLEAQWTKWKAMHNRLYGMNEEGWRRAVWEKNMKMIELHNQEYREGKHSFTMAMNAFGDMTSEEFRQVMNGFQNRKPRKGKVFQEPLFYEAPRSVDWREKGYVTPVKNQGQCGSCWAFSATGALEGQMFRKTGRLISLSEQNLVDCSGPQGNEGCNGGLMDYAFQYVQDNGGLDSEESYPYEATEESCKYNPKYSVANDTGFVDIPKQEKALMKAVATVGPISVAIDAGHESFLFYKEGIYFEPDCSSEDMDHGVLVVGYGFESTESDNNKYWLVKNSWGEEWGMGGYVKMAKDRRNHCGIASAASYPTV

SMILES | IC50 (Cathepsin B) [nM] | IC50 (Procathepsin L) [nM] | IC50 (Cruzipain) [nM] | other results
CS(=O)(=O)c1ccc(-c2ccc([C@H](N[C@@H](CC(Cl)Cl)C(=O)N[C@H](C#N)Cc3ccccc3)C(F)(F)F)cc2)cc1 | 383 | 42 |  | 
CC(C)C[C@H](N[C@@H](c1ccc(-c2ccc(N3CCNCC3)cc2)cc1)C(F)(F)F)C(=O)NCC#N |  |  | 1.8 | Activity (Trypanosoma cruzi): Active; Activity (Mus musculus): Non-toxic
CC(C)(F)C[C@H](N[C@@H](c1ccc(-c2ccc(C3(C(N)=O)CC3)cc2)cc1)C(F)(F)F)C(=O)N[C@H](C#N)Cc1ccccc1 | 27 | 426 |  | 
CC(C)(F)C[C@H](N[C@@H](c1ccc(-c2ccc(S(C)(=O)=O)cc2)cc1)C(F)(F)F)C(=O)N[C@H](C#N)C1(c2ccccc2)CC1 | > 10000 | > 10000 | > 10000 | 
CC(C)(F)C[C@H](N[C@@H](c1ccc(-c2ccc(S(C)(=O)=O)cc2)cc1)C(F)(F)F)C(=O)N[C@H](C#N)Cc1ccc(C#N)cc1F | 9 | 49 |  | 
CC(C)(F)C[C@H](N[C@@H](c1ccc(-c2ccc(S(C)(=O)=O)cc2)cc1)C(F)(F)F)C(=O)N[C@H](C#N)Cc1ccccc1 | 122 | 966 |  | half-life [1]: < 0.5 h
CC(C)(C)[C@H](N[C@@H](c1ccc(-c2ccc(S(C)(=O)=O)cc2)cc1)C(F)(F)F)C(=O)N[C@H](C#N)Cc1ccccc1 | > 10000 | > 10000 | 380 | 
CC(C)(F)C[C@H](N[C@@H](c1ccc(-c2ccc(S(C)(=O)=O)cc2)cc1)C(F)(F)F)C(=O)N[C@H](C#N)Cc1ccncc1 | 79 | 219 |  | 
CS(=O)(=O)c1ccc(-c2ccc([C@H](N[C@H](C(=O)N[C@H](C#N)Cc3ccccc3)C3CC3)C(F)(F)F)cc2)cc1 | 68 | 751 | 7 | 
CS(=O)(=O)c1ccc(-c2ccc([C@H](N[C@@H](CC3CC3)C(=O)N[C@H](C#N)Cc3ccccc3)C(F)(F)F)cc2)cc1 | 231 | 5250 |  | 
CC(C)[C@H](N[C@@H](c1ccc(-c2ccc(S(C)(=O)=O)cc2)cc1)C(F)(F)F)C(=O)N[C@H](C#N)Cc1ccccc1 | 433 | 631 |  | 
CC(C)(F)C[C@H](N[C@@H](c1ccc(-c2ccc(-c3ccncc3)cc2)cc1)C(F)(F)F)C(=O)N[C@H](C#N)Cc1ccccc1 |  | 436 |  | 
CC(C)C[C@H](N[C@@H](c1ccc(-c2ccc(S(C)(=O)=O)cc2)cc1)C(F)(F)F)C(=O)N[C@H](C#N)Cc1ccccc1 | 163 | 117 | 0.2 | 
CC(C)(F)C[C@H](N[C@@H](c1ccc(-c2cn[nH]c2)cc1)C(F)(F)F)C(=O)N[C@H](C#N)Cc1ccccc1 | 59 | 379 | 33 | 
CC(C)[C@H](N[C@@H](c1ccc(-c2ccc(S(C)(=O)=O)cc2)cc1)C(F)(F)F)C(=O)N[C@H](C#N)Cc1ccc(C#N)cc1F | 143 | 121 |  | IC50 (Cathepsin S): 169 nM; IC50 (Cathepsin L2): 28 nM; IC50 (Cathepsin K): 0.9 nM
CC(C)(F)C[C@H](N[C@@H](c1ccc(-c2ccc([C@@H](O)C(F)F)cc2)cc1)C(F)(F)F)C(=O)N[C@H](C#N)Cc1ccccc1 | 48 | 1090 |  | 
CC(C)[C@H](N[C@@H](c1ccc(-c2ccc([C@@H](O)C(F)F)cc2)cc1)C(F)(F)F)C(=O)N[C@H](C#N)Cc1ccc(C#N)cc1F | 87 | 1060 |  | half-life [2]: 4.6 h; IC50 (Cathepsin S): 322 nM; half-life [3]: 5.2 h; bioavailability [4]: 30%; IC50 (Cathepsin L2): 69 nM; IC50 (Cathepsin K): 2 nM; bioavailability [5]: 20%
CC(C)(F)C[C@H](N[C@@H](c1ccc(-c2ccc(S(C)(=O)=O)cc2)cc1)C(F)(F)F)C(=O)N[C@@H](C#N)Cc1ccc(C#N)cc1F | 260 | 711 |  | 
CC(C)[C@H](N[C@@H](c1ccc(-c2ccc(C3(C(N)=O)CC3)cc2)cc1)C(F)(F)F)C(=O)N[C@H](C#N)Cc1ccc(C#N)cc1F | 41 | 98 |  | IC50 (Cathepsin S): 408 nM; IC50 (Cathepsin L2): 79 nM; IC50 (Cathepsin K): 3 nM
CC(C)(F)C[C@H](N[C@@H](c1ccc(-c2ccc(S(C)(=O)=O)cc2)cc1)C(F)(F)F)C(=O)N[C@H](C#N)CCc1ccccc1 | 397 | > 10000 | 510 | 
CC(C)(F)C[C@H](N[C@@H](c1ccc(-c2ccc(S(C)(=O)=O)cc2)cc1)C(F)(F)F)C(=O)N[C@H](C#N)CC(F)(F)F |  | 2630 | 130 | 
CC(C)(F)C[C@H](N[C@@H](c1ccc(-c2ccc(C3(C(=O)N4CCOCC4)CC3)cc2)cc1)C(F)(F)F)C(=O)N[C@H](C#N)Cc1ccccc1 | 64 | 1080 |  | 
CS(=O)(=O)c1ccc(-c2ccc([C@H](N[C@@H](Cc3ccccc3)C(=O)N[C@H](C#N)Cc3ccccc3)C(F)(F)F)cc2)cc1 | 577 | 458 | 7 | 
